# Results taken from US12441719B2, “Inhibitors of SARM1” (Disarm Therapeutics, Inc., priority 2019, dated 2025).
# Target: T1, SARM1 (Homo sapiens, UniProt Q6SZW1)
# T1 construct: AviTag […]; made in house; host or cells: NRK1-HEK293T cells, transiently transfected; the clarified sonicated lysate was used without purification
# T1 sequence (Q6SZW1 with tags, fused parts or gaps): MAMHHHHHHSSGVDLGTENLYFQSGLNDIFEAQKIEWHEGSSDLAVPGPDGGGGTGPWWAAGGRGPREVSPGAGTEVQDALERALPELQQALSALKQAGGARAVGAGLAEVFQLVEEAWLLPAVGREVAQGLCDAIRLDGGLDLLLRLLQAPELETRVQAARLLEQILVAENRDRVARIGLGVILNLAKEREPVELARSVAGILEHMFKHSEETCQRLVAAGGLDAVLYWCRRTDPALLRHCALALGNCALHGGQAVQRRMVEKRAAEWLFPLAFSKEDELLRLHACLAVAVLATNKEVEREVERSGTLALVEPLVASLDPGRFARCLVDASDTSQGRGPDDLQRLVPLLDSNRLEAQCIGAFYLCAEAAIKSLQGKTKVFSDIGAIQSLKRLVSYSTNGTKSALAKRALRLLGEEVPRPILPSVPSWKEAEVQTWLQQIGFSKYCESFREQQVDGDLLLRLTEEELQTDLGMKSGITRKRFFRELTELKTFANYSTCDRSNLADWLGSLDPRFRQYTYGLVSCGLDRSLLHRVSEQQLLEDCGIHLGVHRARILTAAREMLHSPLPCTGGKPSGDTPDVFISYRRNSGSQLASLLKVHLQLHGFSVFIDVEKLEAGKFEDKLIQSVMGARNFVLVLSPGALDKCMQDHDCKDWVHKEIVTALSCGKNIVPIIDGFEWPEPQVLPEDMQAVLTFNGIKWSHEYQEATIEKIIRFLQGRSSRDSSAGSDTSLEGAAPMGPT
# Test: ARM-SAM-TIR SARM1 IC50 assay (NADase activity, NAD+ cleavage)
# Format: biochemical
# Settings: not given
# From the text: This Example describes an assay of ARM-SAM-TTR NADase activity and use of this assay to measure the efficacy of compounds of Formula I or Formula II to block SARM1 mediated NAD+ cleavage. This assay is optimized in such a way as to characterize the efficacy of the compounds in Formula I or Formula II to inhibit SARM1 activity and to calculate an IC50 value for each compound. This assay makes use of full length SARI, which encompasses the ARM, SAM and TTR domains.
# Preparation of ARM-SAM-TIR Lysate (STL)
# NRK1-HEK293T cells were seeded onto 150 cm^2 plates at 20×10^6 cells per plate. The next day, the cells were transfected with 15 μg ARM-SAM-TIR expression plasmid, SEQ ID NO: 1.
# The cultures were supplemented with 1 mM NR at time of transfection to minimize toxicity from ARM-SAM-TIR overexpression. Forty-eight hours after transfection, cells were harvested, pelleted by centrifugation at 1,000 rpm (Sorvall ST 16R centrifuge, Thermo Fisher), and washed once with cold PBS (0.01 M phosphate buffered saline NaCl 0.138 M; KCl 0.0027 M; pH 7.4). The cells were resuspended in PBS with protease inhibitors (cOmplete™ protease inhibitor cocktail, Roche product #11873580001) and cell lysates were prepared by sonication (Branson Sonifer 450, output=3, 20 episodes of stroke). The lysates were centrifuged (12,000×g for 10 min at 4° C.) to remove cell debris and the supernatants (containing ARM-SAM-TIR protein) were stored at −80° C. for later use in the in vitro ARM-SAM-TIR NADase assay (see below). Protein concentration was determined by the Bicinchoninic (BCA) method and used to normalize lysate concentrations.
# ARM-SAM-TIR IC50 Assay of Formula I or Formula II Compounds.
# The enzymatic assay was performed in a 384-well polypropylene plate in Dulbecco's PBS buffer in a final assay volume of 20 μL. ARM-SAM-TIR lysate with a final concentration of 5 μg/mL was pre-incubated with the respective compound at 1% DMSO final assay concentration over 2 h at room temperature. The reaction was initiated by addition of 5 μM final assay concentration of NAD+ as substrate. After a 2 hr room temperature incubation, the reaction was terminated with 40 μL of stop solution of 7.5% trichloroactetic acid in acetonitrile. The NAD+ and ADPR concentrations were analyzed by a RapidFire High Throughput Mass Spectrometry System (Agilent Technologies, Santa Clara, CA) using an API4000 triple quadrupole mass spectrometer (AB Sciex Framingham, MA).
row,SMILES,IC50 [µM]
1,N#Cc1cc(N2C3CNCC2C3)nc2ccc(Cl)cc12 [Example 72],< 5
2,N#Cc1cc(N2CC3CC(C2)N3)nc2ccc(Cl)cc12 [Example 73],< 5
3,N#Cc1cc(N2CC3CCC2CN3)nc2ccc(Cl)cc12 (centres unmarked) [Example 74],< 5
4,N#Cc1cc(N2C[C@H]3C[C@@H]2CN3)nc2ccc(Cl)cc12 [Example 84],5 to 15
5,CC(C)(C)OC(=O)N1C2CC1CN(c1cc(C#N)c3cc(Cl)ccc3n1)C2 [Example 91],< 5

# Same assay, conditions: ARM-SAM-TIR lysate 5 μg/mL from NRK1-HEK293T cells; 2 h pre-incubation with compound, 5 μM NAD+, 2 hr room temperature; NAD+ and ADPR by RapidFire mass spectrometry; read-out: SARM1 IC50
row,IC50 [µM],SMILES
1,< 5,N#Cc1cc(NCc2cccc(C(N)=O)c2)nc2ccc(Cl)cc12 [Example 45]
2,< 5,CN1CCC(Nc2cc(C#N)c3cc(Cl)ccc3n2)C1=O (centres unmarked) [Example 46]
3,< 5,CS(=O)(=O)C1CCN(c2cc(C#N)c3cc(Cl)ccc3n2)C1 (centres unmarked) [Example 47]
4,< 5,CO[C@@H]1CCN(c2cc(C#N)c3cc(Cl)ccc3n2)C1 [Example 48]
5,< 5,CO[C@H]1CCN(c2cc(C#N)c3cc(Cl)ccc3n2)C1 [Example 49]
6,< 5,CNc1cc(C#N)c2cc(Cl)ccc2n1 [Example 50]
7,> 30,N#Cc1cc(NC2CC2)nc2ccc(Cl)cc12 [Example 51]
8,> 30,CN1CCN(c2cc(C#N)c3cc(Cl)ccc3n2)CC1 [Example 52]
9,> 30,CCN1CCN(c2cc(C#N)c3cc(Cl)ccc3n2)CC1 [Example 53]
10,< 5,COC1CCN(c2cc(C#N)c3cc(Cl)ccc3n2)CC1 [Example 54]
11,5 to 15,CS(=O)(=O)C1CCN(c2cc(C#N)c3cc(Cl)ccc3n2)CC1 [Example 55]
12,5 to 15,N#Cc1cc(N2CCC(C(N)=O)CC2)nc2ccc(Cl)cc12 [Example 56]
13,< 5,CNC(=O)C1CCN(c2cc(C#N)c3cc(Cl)ccc3n2)CC1 [Example 57]
14,< 5,N#Cc1cc(N2CCC[C@H](N)C2)nc2ccc(Cl)cc12 [Example 58]
15,< 5,CS(=O)(=O)C1CCCN(c2cc(C#N)c3cc(Cl)ccc3n2)C1 (centres unmarked) [Example 59]
16,< 5,CO[C@@H]1CCCN(c2cc(C#N)c3cc(Cl)ccc3n2)C1 [Example 60]
17,< 5,CO[C@H]1CCCN(c2cc(C#N)c3cc(Cl)ccc3n2)C1 [Example 61]
18,< 5,C[C@@H]1CCCN(c2cc(C#N)c3cc(Cl)ccc3n2)C1 [Example 62]
19,< 5,C[C@H]1CCCN(c2cc(C#N)c3cc(Cl)ccc3n2)C1 [Example 63]
20,< 5,N#Cc1cc(N2CCC(N)CC2)nc2cc(Cl)ccc12 [Example 64]
21,< 5,N#Cc1cc(N2CC[C@@H](N)C2)nc2ccc(Cl)cc12 [Example 65]

row,IC50 [µM],SMILES
1,< 5,N#Cc1cc(N2CC[C@H](N)C2)nc2ccc(Cl)cc12 [Example 66]
2,< 5,N#Cc1cc(N2CCC(C(N)=O)C2)nc2ccc(Cl)cc12 (centres unmarked) [Example 67]
3,5 to 15,CNC(=O)C1CCN(c2cc(C#N)c3cc(Cl)ccc3n2)C1 (centres unmarked) [Example 68]
4,< 5,CN(C)C(=O)C1CCN(c2cc(C#N)c3cc(Cl)ccc3n2)C1 (centres unmarked) [Example 69]
5,15 to 30,N#Cc1cc(N)nc2ccc(Cl)cc12 [Example 70]
6,< 5,N#Cc1cc(N2CCCC2)nc2cc(F)c(Cl)cc12 [Example 71]
7,< 5,N#Cc1cc(N2CCC(O)CC2)nc2ccc(Cl)cc12 [Example 75]
8,< 5,N#Cc1cc(N2CCOCC2)nc2ccc(Cl)cc12 [Example 76]
9,< 5,N#Cc1cc(N2CCC[C@H](O)C2)nc2ccc(Cl)cc12 [Example 77]
10,< 5,N#Cc1cc(N2CCC[C@H](C(N)=O)C2)nc2ccc(Cl)cc12 [Example 78]
11,< 5,CNC(=O)[C@H]1CCCN(c2cc(C#N)c3cc(Cl)ccc3n2)C1 [Example 79]
12,< 5,CN(C)C(=O)[C@H]1CCCN(c2cc(C#N)c3cc(Cl)ccc3n2)C1 [Example 80]
13,< 5,C[C@@H]1CCC[C@H](C)N1c1cc(C#N)c2cc(Cl)ccc2n1 [Example 81]
14,< 5,C[C@@H]1CCCCN1c1cc(C#N)c2cc(Cl)ccc2n1 [Example 82]
15,< 5,C[C@H]1CCCCN1c1cc(C#N)c2cc(Cl)ccc2n1 [Example 83]
16,5 to 15,N#Cc1cc(N2CCC[C@@H](N)C2)nc2ccc(Cl)cc12 [Example 85]
17,5 to 15,Cn1cc(-c2cc(C#N)c3cc(Cl)ccc3n2)cn1 [Example 86]
18,15 to 30,N#Cc1cc(-c2cccnc2)nc2ccc(Cl)cc12 [Example 87]
19,< 5,C#CCCC1(CCNC2CCN(c3cc(C#N)c4cc(Cl)ccc4n3)CC2)N=N1 [Example 88]
20,< 5,N#Cc1cc(N2CCCCC2)nc2cc(F)c(Cl)cc12 [Example 89]
21,< 5,N#Cc1c(Cl)c(N2CC[C@@H](O)C2)nc2ccc(Cl)cc12 [Example 90]

row,IC50 [µM],SMILES
1,< 5,N#Cc1cc(N2CCSCC2)nc2ccc(Cl)cc12 [Example 92]
2,< 5,CC(C)(C)OC(=O)NC1CCN(c2cc(C#N)c3cc(C4=CCOC4)ccc3n2)CC1 [Example 93]
3,< 5,CC(C)(C)OC(=O)NC1CCN(c2cc(C#N)c3cc(C4CCOC4)ccc3n2)CC1 (centres unmarked) [Example 94]
4,< 5,N#Cc1cc(N2CCCC[C@H]2CO)nc2ccc(Cl)cc12 [Example 95]
5,< 5,C[C@@H]1CCC[C@H](C)N1c1cc(C#N)c2cc(Br)ccc2n1 [Example 96]
6,< 5,CC1(O)CCCN(c2cc(C#N)c3cc(Br)ccc3n2)C1 (centres unmarked) [Example 97]
7,< 5,N#Cc1cc(N2CCCCC2C2CC2)nc2ccc(Cl)cc12 (centres unmarked) [Example 98]
8,< 5,N#Cc1cc(N2CC[C@H](N)C(F)C2)nc2ccc(Br)cc12 (some centres unmarked) [Example 99]
9,< 5,N#Cc1cc(N2CCC[C@H](C(=O)N3CCCC3)C2)nc2ccc(Br)cc12 [Example 100]
10,< 5,N#Cc1cc(N2CCC[C@H](C(=O)N3CCOCC3)C2)nc2ccc(Br)cc12 [Example 101]
11,< 5,COCCNC(=O)[C@H]1CCCN(c2cc(C#N)c3cc(Br)ccc3n2)C1 [Example 102]
12,< 5,N#Cc1cc(N2CCC[C@H](C(=O)NCC3CC3)C2)nc2ccc(Br)cc12 [Example 103]
13,< 5,N#Cc1cc(N2CCC(C(=O)N3CCOCC3)CC2)nc2ccc(Br)cc12 [Example 104]
14,5 to 15,N#Cc1cc(N2CCC(C(=O)NCC3CC3)CC2)nc2ccc(Br)cc12 [Example 105]
15,< 5,N#Cc1cc(N2CCC[C@H](NC(=O)C3CC3)C2)nc2ccc(Br)cc12 [Example 106]
16,< 5,N#Cc1cc(N2CCC[C@H](NCc3ccccc3)C2)nc2ccc(Br)cc12 [Example 107]
17,< 5,N#Cc1cc(N2CCC[C@H](NCC3CC3)C2)nc2ccc(Br)cc12 [Example 108]
18,< 5,N#Cc1cc(N2CCC[C@H](N3CCCC3=O)C2)nc2ccc(Br)cc12 [Example 109]
19,< 5,CS(=O)(=O)N[C@H]1CCCN(c2cc(C#N)c3cc(Br)ccc3n2)C1 [Example 110]
20,< 5,C#CCCC1(CCNc2cc(C#N)c3cc(Cl)ccc3n2)N=N1 [Example 111]
21,< 5,COCCN(C)C(=O)[C@H]1CCCN(c2cc(C#N)c3cc(Br)ccc3n2)C1 [Example 112]
